# How the values were obtained:
# neuromuscular blockade = assay: Reversibility of neuromuscular blockade effects by administration of thiol compounds; type: in vivo; settings: administration of thiol compounds such as cysteine (L or D) or glutathione
# [1] = system: neuromuscular blockade produced by CW002; assay: Reversal of CW002 neuromuscular blockade (recovery of muscle twitch) by cysteine in anesthetized beagles; type: in vivo; settings: 0.08 mg/kg CW002, cysteine given 1 minute after CW002
# Experimental: Three anesthetized male beagles received CW002. After 1 minute and complete loss of muscle twitch, D-cysteine was administered at dosages of 10, 20, 50 or 100 mg/kg. Each dose was given as a single experiment separated from other experiments by at least 7 days. The rate and time to complete recovery of muscle twitch in each animal was determined.
# rats = assay: L-cysteine toxicology in rats; type: in vivo; settings: conscious rats; bolus injections of 750 mg/kg intravenously
# Text: This Example describes toxicology studies performed using FDA guidelines.
# [2] = system: neuromuscular blockade produced by CW002; settings: previous study (Sunaga et al.); cited from earlier work
# [3] = system: anesthetized male beagles; settings: 100 mg/kg; previous work by the inventors; cited from earlier work
# [4] = Natural pH, solubility and precipitation of cysteine solutions (general statements); type: physicochemical
smiles,measurement,setting,value
COc1ccc(CC2c3cc(OC)c(OC)cc3CC[N+]2(C)CCCOC(=O)/C=C/C(=O)OCCC[N+]2(C)CCc3cc(OC)c(OC)cc3C2Cc2ccc(OC)c(OC)c2)cc1OC (centres unmarked) [CW002],Reversibility of neuromuscular blockade effects by thiol compounds,neuromuscular blockade,reversible
COc1ccc(C[C@@H]2c3cc(OC)c(OC)cc3CC[N@@+]2(C)CCCOC(=O)/C=C\C(=O)OCCC[N@+]2(C)CCc3cc(OC)c(OC)cc3[C@H]2Cc2cc(OC)c(OC)c(OC)c2)cc1OC [CW 011],Reversibility of neuromuscular blockade effects by thiol compounds,neuromuscular blockade,reversible
N[C@H](CS)C(=O)O [D-cysteine],Dose range effective for reversal of CW002,[1],30 to 50 mg/kg
N[C@@H](CS)C(=O)O [L-cysteine],"Clinical, biochemical, or histological evidence of organ toxicity",rats,"No animals exhibited clinical, biochemical, or histological evidence of organ toxicity"
same,Dose range effective for reversal of CW002 (previously described),[2],30 to 50 mg/kg
same,Effect on blood pressure (previous work),[3],modest increase in blood pressure
N[C@@H](CS)C(=O)O [cysteine],solubility,"[4]; base form, read-out: Solubility of cysteine in its base form",≤ 50 mg/mL
same,Precipitation of cysteine solutions adjusted with sodium hydroxide,[4]; pH values above 3,rapid cystine precipitation

# Reference: US9220700B2, “Cysteine for physiological injection” (Cornell University, priority 2009, dated 2015)
